In patent publication US10682371B2, “Small molecule conjugates specifically activated in tumor microenvironment for targeting and use thereof” (priority 2014, dated 2020):
Like-named read-outs stand apart in the source and are kept apart here.

What was measured:
D121 lung tumor cells = assay type: in vivo, C57 mice; details: drugs weekly for 4 weeks
Procedure: (§1) 1) D121 lung tumor cells were purchased from ATCC. Cells were cultivated in DMEM culture solution containing 10% fetal bovine serum at 37° C. and 5% CO2. The cells were passaged for every three days and cells within the 15th passage were used.
(§2) 2) Tumor immunization. 5×10^5 D121 lung cancer cells (purchased from ATCC) which were killed by irradiation were intraperitoneally injected to mice. The mice were injected for 3 times, once every two weeks. After immunization, mice were injected with tumor cells and the drugs were administered weekly for 4 weeks.
3) Production of tumor. At day 32, 10^6 live lung tumor cells were subcutaneously injected to the back of the C57 mice immunized by tumor. Treatment began when the tumor grew to 0.3-0.4 cm.
as §2, with “4 weeks. In table 16 below the immune group was immuned with D121 lung tumor cells and the group without dead D121 lung tumor cells was injected with physiological saline as controls.” for “4 weeks.”
3) Production of tumor. After immunization (4 weeks later), 10^6 live lung tumor cells were subcutaneously injected to the back of the C57 mice immunized by tumor. Treatment began when the tumor grew to 0.3-0.4 cm. Tumor size (mm^3) were noted and tumor inhibition rates were calculated.
as §2, with “4 weeks. In the table below the immune group was immuned with D121 lung tumor cells and the group without dead D121 lung tumor cells was injected with physiological saline as controls.” for “4 weeks.”
3) Production of tumor. At day 32, 10^6 live D121 lung tumor cells were subcutaneously injected to the back of the C57 mice immunized by tumor. Treatment began when the tumor grew to 0.3-0.4 cm.
1) D121 lung tumor cells were purposed from ATCC. Cells were cultivated in DMEM culture solution containing 10% fetal bovine serum at 37° C. and 5% CO2. The cells were passaged for every three days and cells within the 15th passage were used.

tumor CD8+ T cells = assay type: in vivo, C57 mice; details: CD8 positive cells in CD45 positive cells of tumor
Procedure: (§3) 4) Analysis on tumor CD8+ T cells. The tumor tissue was homogenated and individual cells in the tumor were filtered, separated and washed by buffer twice, then cultivated with the leucocyte common antigen CD45-PE and CD8-FITC marked antibodies for 1 hour at ambient temperature. The cells were washed by phosphate buffer containing 1% fetal bovine serum twice and then analyzed for the ratio of the T lymphocyte antigen (CD8) positive cells in the leucocyte common antigen (CD45) positive cells by flow cytometry.
as §3, with “CD45-PE and T-lymphocyte antigen CD8-FITC marked” for “CD45-PE and CD8-FITC marked”, “flow cytometry. Increasement of the ratio indicates increased T lymphocyte cells and thus the animal immunity against the tumor was improved.” for “flow cytometry.”
as §3, with “cytometry. Increasement of the ratio indicates increased T lymphocyte cells and thus the animal immunity against the tumor was improved.” for “cytometry.”

[1] = test system: Human prostate cancer PC-3 cells / Panc-1 cells; assay: Tumor treatment in nude mice (PC-3 cells purchased, Panc-1 cells injected; Examples 22, 32, 42); assay type: in vivo; details: nude mice, IV once weekly for four weeks, Paclitaxel 8 mg/kg
Procedure: as §1, with “Human prostate cancer PC-3” for “D121 lung tumor”, “from American type culture collection (ATCC) and identified according the specification provided by” for “from”
2) Production of tumor. 5×10^6Panc-1 cells were subcutaneously injected to the back of the nude mice. Mice were randomly grouped after the tumor reached at least 100 mm^3. Then treatment began and the day on which the treatment began was day 1.
The control group was administered by physiological saline. Drugs were administered once weekly for four weeks.
According to the clinical application of B1, B2, B3 and B4, drugs were intravenously injected (IV). […] The control group was administered by physiological saline. Drugs were administered once weekly for four weeks.

4T1 cells = assay: BALB/C mice model for tumor metastasis (4T1, lung metastases); assay type: in vivo; details: IV every three days for 4 times, Paclitaxel 4 mg/kg
Procedure: as §1, with “4T1” for “D121 lung tumor”, “from American type culture collection (ATCC) and identified according the specification provided by” for “from”
2) Production of tumor metastasis. 10^6 […] were subcutaneously injected to the back of the BALB/C mice. Mice were randomly grouped after the tumor grew to about 1.5 cm. The subcutaneous tumor was removed by surgery and drug treatment began. Mice were killed after anesthesia on day 27. The whole lung was taken out and put into Bouin's solution for staining. The number of the tumor metastasized to lung was counted with anatomical microscope.
(§4) The control group was administered by physiological saline. Drugs were administered once for every three days for 4 times.
as §4
According to the clinical application of B1, B2, B3 and B4, drugs were intravenously injected (IV). […] The control group was administered by physiological saline. Drugs were administered once for every three days for 4 times.
According to the clinical application of D1, D2, D3 and D4, drugs were intravenously injected (IV). […] The control group was administered by physiological saline. Drugs were administered once for every three days for 4 times.

[2] = test system: tumor-derived immunosuppressive T cells (T reg: CD4+, CD25+, Foxp3+); CD8 T cells; assay: Immunological stimulation test in mice receiving tumor treatment (T reg, CD8 T cells); assay type: in vivo; details: mice receiving tumor treatment
Text: We further studied the immunological stimulation property of Legutaxel. […] On the contrary, the index for tumor-derived immunosuppressive T cells in treatment group by Legutaxel decreased due to targeted chemotherapy (see panels in FIGS. 3A and 3B).

[3] = D121 immunized C57 mice, Day 18 (Example 23)
[4] = Table 26, A1-A4 24 mg/kg, Day 10
[5] = 4T1, BALB/C mice, lung, day 27, S1′-S4′ 12 mg/kg
[6] = Table 28, BALB/C mice, 4T1, lung metastases day 27, A1-A4 12 mg/kg

Paclitaxel [reference compound]
Size of tumor (mm^3) Day 18 (D121 lung tumor cells; [3]): 1210.28 ± 375.46 mm^3
inhibitory rate on tumor % Day 18 (D121 lung tumor cells; [3]): 23.1%
inhibitory rate on tumor % Day 18 (D121 lung tumor cells; Table 27, immunized C57 mice, D121 lung tumor, Day 18): 20.47%
CD8: CD45 (%) (tumor CD8+ T cells; D121 immunized C57 mice (Example 23)): 6.6%
CD8: CD45 (%) (tumor CD8+ T cells; Table 27, flow cytometry, immunized C57 mice, D121): 5.7%
Size of tumor (mm^3) Day 10 [1, 4]: 123.04 ± 125.3 mm^3
inhibitory rate on tumor Day 10 [1, 4]: 58.3%
Size of tumor (mm^3) Day 24 ([1]; Table 26, A1-A4 24 mg/kg): 252.49 ± 248.5 mm^3
inhibitory rate on tumor Day 24 ([1]; Table 26, A1-A4 24 mg/kg): 33.7%
inhibitory rate on tumor Day 10 ([1]; S1′-S4′ 24 mg/kg, Day 10): 7.5%
Size of tumor (mm^3) Day 24 ([1]; S1′-S4′ 24 mg/kg): 249.54 ± 95.46 mm^3
inhibitory rate on tumor Day 24 ([1]; S1′-S4′ 24 mg/kg): 27.9%
Inhibitory rate on metastasis (4T1 cells; [5]): 5.9%
Number of metastasized tumor (4T1 cells; [5]): 128 ± 25
Inhibitory rate on metastasis (4T1 cells; [6]): 6.8%
Number of metastasized tumor (4T1 cells; [6]): 137 ± 32
Index for tumor-derived immunosuppressive T cells (T reg: CD4+, CD25+, Foxp3+) [2]: greatly increased
